The target in the test is T1, Adenosine receptor A1 (Rattus norvegicus, UniProt P25099).
T1 sequence (P25099 whole entry): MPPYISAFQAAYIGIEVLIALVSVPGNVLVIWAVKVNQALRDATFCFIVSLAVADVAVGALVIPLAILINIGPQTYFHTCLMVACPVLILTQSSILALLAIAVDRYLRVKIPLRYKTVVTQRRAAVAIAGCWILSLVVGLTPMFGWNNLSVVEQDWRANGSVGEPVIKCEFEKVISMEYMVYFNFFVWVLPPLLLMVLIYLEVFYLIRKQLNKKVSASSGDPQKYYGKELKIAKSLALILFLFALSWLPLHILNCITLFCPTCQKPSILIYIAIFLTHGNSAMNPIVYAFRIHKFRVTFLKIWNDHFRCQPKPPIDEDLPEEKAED
The test can be described thus: Inhibition of [3H]CHA binding to Adenosine A1 receptor in rat brain membranes. In kind it is cell membranes.

Take `CCCn1c(=O)c2[nH]c(-c3ccc(Cl)cc3N)nc2n(CCC)c1=O`: the affinity, expressed as Ki, was 4.8 nM.

On to `Cc1nn(C)c2c(=O)[nH]c(-c3ccc(Cl)cc3N)nc12`, for which the inhibitory constant (Ki) is 310 nM.

Values taken from ChEMBL document CHEMBL1124797, “A model for the antagonist binding site on the adenosine A1 receptor, based on steric, electrostatic, and hydrophobic properties” (J Med Chem, 1990).
